Laboratory results taken from patent US20130296346A1, “DIPHENYL-AMINE DERIVATIVES: USES, PROCESS OF SYNTHESIS AND PHARMACEUTICAL COMPOSITIONS” (Faes Farma, S.A., priority 2010, published 2013).

Legend:
IL6 = experiment: Blood serum IL6 in mice treated with parathyroid hormone; assay type: in vivo; conditions: orally 25 mg/kg; pTH-rp treated mice
Procedure: MATERIAL AND METHODS: Male CD1 mice, between 5 and 7 week and housed under controlled standard conditions, were used. These animal fasted (for 14-16 hours; 12 per group; 6 per cage≅1100 cm^2), with solid and liquid food ad libitum. During 5 days, the animals were treated with 8 i.p. administration of pTH-rp (1-34, human) 15 microgram/0.1 ml/injection
Oral test treatments were given in suspensions (vehicle: Tween 80 0.1%—NaCl 0.9%), in a 10 ml/kg volume ratio., one hour later of pTH injection.
Two hours after last pTH administration and under Isoflurane anaesthesia, 0.5-0.8 ml of blood was extracted by cardiac punction; the blood sample was centrifuged (6000 rpm; 10 minutes; 4° C.) and 2 serum samples were taken and kept frozen at −70° C. until serum IL6 concentrations were measured (EIA: reference number 555240. BD Bioscience).

melting point: 96.6 to 98.5 °C
SMILES: Cl.FC(F)(F)Oc1cccc(CNCCCCC=C(c2ccccc2)c2ccccc2)c1 [Compound 15, (6,6-diphenyl-hex-5-enyl)-(3-trifluoromethoxybenzyl)amine hydrochloride]
reduction of blood serum levels of IL6 in relation to vehicle group (IL6): 64.58%
